{
  "source": "patent US9249135B2",
  "about": "“Therapeutic agent for mood disorders” (KYOWA HAKKO KIRIN CO., LTD., priority 2009, dated 2016)",
  "key": {"mice": {"tested_on": "mice", "assay": "Forced swim test in mice", "format": "in vivo, mouse (male ddY-strain)", "excerpt": "The forced swim test in rats and mice is widely used for test system which evaluates antidepressant activities (Arch. Int. Pharmacodyn. Ther. 229, p.327 (1977)). The forced swim test is means for evaluating depressive state using the length of time during which the animal ceases its escape behavior due to a sense of helplessness (immobility time) as an index thereof by placing a mouse or a rat in water in an inescapable cylinder. Since immobility time is shortened by existing antidepressants, this is known as an animal model of depression. The male ddY-strain mice (20 to 29 g; Japan SLC, Inc.) were used in this study. A transparent acrylic water bath 10 cm in diameter and 25 cm in height was filled with water at 23° C.±1° C. to a depth of 10 cm. Each mouse was slowly placed in the water bath. At 2 minutes after placement in the bath, immobility time (duration during which no escape behavior was observed) was measured for 4 minutes. The test compound was used for the test in suspension in distilled water for injection (manufactured by Otsuka Pharmaceutical Co.,) containing 0.5 w/v % MC (methylcellulose). […] The antidepressant activity of the test compound was evaluated with the immobility time for the vehicle control group and that for the test compound dose group as indexes. […]"}, "rats [1]": {"tested_on": "rats", "assay": "Forced swim test in rats", "format": "in vivo, rat (male SD-strain)", "excerpt": "The forced swim test in rats and mice is widely used for test system which evaluates antidepressant activities (Arch. Int. Pharmacodyn. Ther. 229, p.327 (1977)). The forced swim test is means for evaluating depressive state using the length of time during which the animal ceases its escape behavior due to a sense of helplessness (immobility time) as an index thereof by placing a mouse or a rat in water in an inescapable cylinder. Since immobility time is shortened by existing antidepressants, this is known as an animal model of depression. The male SD-strain rats (200 to 270 g; Charles River Japan Inc.) were used in this study. A transparent acrylic water bath 18 cm in diameter and 40 cm in height was filled with water at 25° C.±1° C. to a depth of 19 cm. Each rat was slowly placed in the water bath, allowed to stand for 15 minutes, then removed from the bath and dried with a piece of paper towel. The animals were then dried under a table light for 15 minutes and returned to the respective cages (induction of pathological condition). On the following day, the rats were slowly placed in the same water bath. Immediately, immobility time was measured for 5 minutes. […] The antidepressive action of the test compound was evaluated with the immobility time for the vehicle control group and that for the test compound dose group as indexes. […]"}, "rats [2]": {"tested_on": "rats", "assay": "Learned helplessness model of depression in rats", "format": "in vivo, rat (male SD)", "excerpt": "From the effects of existing antidepressants and the like on this system, this test is deemed a higher level animal model in rodents.\nThe male SD rats (190 to 260 g; Charles River Japan Inc.) were used in this study. On Day 1 of experiment, a partition board was placed in the center of the shuttle box to create two compartments so that the animals could not move from one compartment to another (220×200×260 mm). In each compartment, one rat was placed. The animals were retained in the shuttle box for 50 minutes and exposed to electrical shocks (IES) given via stainless floor grids with the light on. […]\nOn Day 2 of experiment, the partition board in the center of the shuttle box was removed and replaced by a hurdle 2 cm in height to create two comportments so that the animals could move from one compartment to another. […] Animal's behavior was evaluated according to the following procedures.\nFR1: A buzzer was activated for 10 seconds. […] This procedure counted as one trial, and was continuously repeated 15 times.\nFR2: Electric stimuli (0.5 mA) were applied for 10 seconds to a rat via the floor grids in the compartment where the animal stayed. […] This procedure counted as one trial, and was continuously repeated 15 times. […]"}},
  "data": [
    {"smiles": "Cc1ccc(C(=O)Nc2nc(-c3ccco3)c(C(=O)C3CCOCC3)s2)cn1", "note": "[(IC)]", "values": [
      {"measurement": "immobility time", "setting": "mice; mice, 0.1 mg/kg orally 1 hour before the test, measured for 4 minutes, vehicle 179.0 ± 15.2", "value": "53.1 ± 11.0", "unit": "s"},
      {"measurement": "immobility time compared with that for the vehicle control group", "setting": "mice; mouse, in words", "value": "shortened"},
      {"measurement": "immobility time compared with that for the vehicle control group", "setting": "rats [1]; rat, in words", "value": "shortened"},
      {"measurement": "immobility time", "setting": "rats [1]; rats, 0.1 mg/kg orally 1 hour before the test, measured for 5 minutes, vehicle 204.0 ± 21.0", "value": "81.5 ± 15.1", "unit": "s"},
      {"measurement": "escape rate (escape response %)", "setting": "rats [2]; rats with IES loading, FR2 session, dose of 0.3 mg/kg orally 1 hour before the FR1 session", "value": "88.7±6.7", "unit": "%"},
      {"measurement": "action on the escape rate reductions by IES loading in the FR2 session", "setting": "rats [2]; rats, single oral dose, in words", "value": "significant ameliorating action"}
    ]}
  ]
}
